Test results as given in article PMC7689096, “Cyclizing Painkillers: Development of Backbone-Cyclic TAPS Analogs” (Frontiers in Chemistry, 2020).
Values joined by “and” are separate entries in the source; they are usually repeats but may differ in a detail not shown here. Equal values may be shown once.

Tests used:
[1] = molecular target: T1, human recombinant μ (MOP, OPRM1) receptor (Homo sapiens, UniProt P35372); test: MOP opioid receptor functional agonism in CHO cells expressing human recombinant μ receptors; assay type: cell-based; details: At 10^−6 M, percent of control specific agonist response, values lower than 25% not significant
T1 construct: host or cells: CHO cells
T1 sequence (P35372 whole entry): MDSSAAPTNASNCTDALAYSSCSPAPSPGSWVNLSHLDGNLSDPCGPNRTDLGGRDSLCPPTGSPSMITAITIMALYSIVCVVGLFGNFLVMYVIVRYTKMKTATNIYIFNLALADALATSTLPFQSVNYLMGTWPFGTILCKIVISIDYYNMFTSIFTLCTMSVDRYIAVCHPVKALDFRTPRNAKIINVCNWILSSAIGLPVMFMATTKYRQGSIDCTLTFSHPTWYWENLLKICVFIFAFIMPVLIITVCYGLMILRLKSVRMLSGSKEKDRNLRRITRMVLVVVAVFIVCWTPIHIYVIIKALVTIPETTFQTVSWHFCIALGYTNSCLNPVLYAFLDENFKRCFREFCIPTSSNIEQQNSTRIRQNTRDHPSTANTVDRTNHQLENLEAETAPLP
Experimental: Peptides were tested for μ (MOP, OPRM1) and δ (DOP, OPRD2) opioid receptor activation functional agonism and antagonism using CHO cells expressing human recombinant μ receptors and NG-10815 cells which express significant endogenous levels of δ opioid receptors. The cultures were incubated for 10 min at 37°C followed by impedance measurements of CHO cells and cAMP was assayed by the HTRF method using NG-10815 cells, according to CEREP standard assay protocols. The respective reference, non-peptide small molecules were tested concurrently with the TAPS analogs. The agonist compounds were: DPDPE (selective agonist of DOP receptor) and DAMGO (high MOP receptor specificity) and the antagonist compounds were: Naltrindole (selective DOP receptor antagonist) and CTOP (MOP receptor antagonist). […] The results are expressed as a percentage of respective control-specific response. […] These findings indicate that TAPS cyclic peptides are MOP selective full agonists. […] The cyclic TAPS peptide had lower activity than the linear parent TAPS peptide (90 ± 5%) – a finding that can be attributed to their restricted conformation relative to the flexible linear peptide conformation.
Evaluation of the Agonist Activity of Compounds at the Human μ Receptor in Transfected CHO Cells, Determined by Measuring Their Effects on cAMP modulation Using the HTRF Detection Method
Thereafter, the adenylyl cyclase activator NKH 477 is added at a final concentration of […]. Following 10 min incubation at 37°C, the cells are lysed and the fluorescence acceptor (D2-labeled cAMP) and fluorescence donor (anti-cAMP antibody labeled with europium cryptate) are added. After 60 min at room temperature, the fluorescence transfer is measured at lex = 337 nm and lem = 620 and 665 nm using a microplate reader (Rubystar, BMG). The cAMP concentration is determined by dividing the signal measured at 665 nm by that measured at 620 nm (ratio). The results are expressed as a percent of the control response to 1 μM DAMGO. The standard reference agonist is DAMGO, which is tested in each experiment at several concentrations to generate a concentration-response curve from which its EC50 value is calculated.
The respective reference, non-peptide small molecules were tested concurrently with the TAPS analogs; Agonist compounds DPDPE ([D-Pen2,D-Pen5]enkephalin), selective agonist of DOP receptor at 2 × 10^−9 M and DAMGO ([D-Ala2, N-MePhe4, Gly-ol] enkephalin), high MOP specificity at 2.5 × 10^−9 M; Antagonist compounds: naltrindole 7-(cyclopropylmethyl)-6,7-dehydro-4,5α-epoxy-3,14-dihydroxy-6,7-2′,3′-indolomorphinan hydrochloride, selective DOP antagonist, 5 × 10^−10 M and CTOP (D-Phe-Cys-Tyr-D-Trp-Orn-Thr-Pen-Thr-NH2), MOP antagonist at 3.4 × 10^−7 M. Depending on the assay volume and solvent tolerance, the stock solutions were diluted to [100×], [333×] or [1,000×] in 100% DMEM solvent, then either added directly or further diluted to [10×] or [5×] in H2O or Hank's balanced salt solution (HBSS) before addition to the assay well (final solvent concentration kept constant). The cultures were incubated for 10 min at 37°C followed by impedance measurements using cellular dielectric spectroscopy of CHO cells and cAMP was assayed by homogeneous time resolved fluorescence (HTRF) method using NG-10815 cells, according to CEREP standard assay protocols (https://euroscreenfast.com/assays/opioid-orl1-camp-fast-0360c; https://euroscreenfast.com/assays/opioid-op1-delta-camp-fast-0379c). The results (mean of three experiments) are expressed as a percent of control specific agonist response [(measured TAPS specific response/control specific agonist response) × 100] and as a percent inhibition of control specific agonist response [100 – (measured TAPS specific response/control specific agonist response) × 100] obtained in the presence of the TAPS compounds. […]

[2] = Caco-2 permeability assay
[3] = tested on: mice; test: Mouse open field test (locomotor adverse effect)
Experimental: In the mouse open field test (OF test), the distance and speed the animal moves over a 5-min time period is recorded, giving an indication as to whether a medication administered affected its locomotor activity. TAPS c(2-6) (5 or 15 mg/kg) was administered via IP administration and compared to morphine (5 mg/kg) and vehicle (PBS).
Male ICR mice (Harlan, Israel) 7 weeks of age (25–27) were used for all pharmacodynamic experiments after 5-day acclimation to laboratory conditions. Animals were allowed free access to food (standard commercial, sterile rodent diet) and water throughout the experiments and kept in automatically controlled environmental conditions for temperature and humidity levels in a 12-h dark-light cycle.
Animals were placed in the OF apparatus for a period of 5 min. The apparatus utilizes computerized monitoring which measures the speed and distance the animal walks during the measurement period. […] Baseline measurements were taken 1 day before initiation of the experiments and again at 0.5, 1.5, 3, and 5 h post injection.

[4] = tested on: mice; test: Mouse tail flick test (analgesia); assay type: in vivo
Experimental: Following the preliminary results showing the in vitro agonist effect of TAPS c(2-6) in activating the μ-opioid receptor, the activity of TAPS c(2-6) in inducing analgesia in vivo was studied utilizing the mouse tail flick model. In this model, the mouse is exposed to local pain induced by an infrared light beam at the tail of the animal, and the time it takes for the animal to react to the pain, i.e., flick its tail, termed the “Latency time to tail flick,” is recorded. The treatment groups received either 5 or 15 mg/kg of TAPS c(2-6) dissolved in PBS. These were compared to animals receiving morphine (5 mg/kg) as a positive control or vehicle (PBS) as a negative control (Figure 9).
For the assessment of analgesia induced by TAPS c(2-6), the mouse tail-flick model was used. […] Animals were placed upon the TF instrument surface (Ugo Basile S.R.L) and held in place. The tail was placed straight back over an infrared light source. The heat source and timer were turned on and automatically switched off when the mouse flicked its tail away from the heat source. The time it took for the animal to flick its tail was measured and results were recorded as latency time to TF. […] Prior to TF measurement, assessment of possible locomotor side-effects via the Open-Field model was performed, as will be described in the next section TAPS c(2-6) Adverse Effect Assessment- the Open-Field Test.

What does the source list for N=C(N)NCCC[C@@H]1C(=O)N[C@@H](Cc2ccccc2)C(=O)N(CC(N)=O)CCNC(=O)NCCCCCCN1C(=O)[C@@H](N)Cc1ccc(O)cc1 [TAPS c(2-6)]?
MOP agonist (%) [1]: 48 ± 3% and 48^** %; Papp [2]: 110 nm/s; Papp A→B [2]: 0.38 nm/s; Papp B→A [2]: 0.5 nm/s; locomotor effect (distance and speed of movement over 5 min) ([3]; 5 mg/kg IP): no locomotor effect; locomotor effect (distance and speed of movement over 5 min) ([3]; 15 mg/kg IP): no locomotor effect; analgesia (latency time to tail flick) ([4]; 5 mg/kg IP, compared to PBS): induced analgesia; analgesia (latency time to tail flick) ([4]; 15 mg/kg IP, compared to morphine 5 mg/kg): comparative in strength and duration to that induced by morphine; duration of analgesia ([4]; higher dosage 15 mg/kg IP): at least 5 h
